Values joined by “and” are separate entries in the source; they are usually repeats but may differ in a detail not shown here. Equal entries are not always repeated.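 Grown in 96-well plates, cells were treated for 48 hours with each compound at five concentrations. Insufficient inhibition: endpoint recorded as highest concentration tested. The concentration for 50% growth inhibition is given as GI50. Definition used: TGI = concentration required for complete inhibition of growth.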
What was measured:
Test in all cases: NCI-60 cell line screen, 48 h
MALME-3M melanoma = tested on: MALME-3M melanoma
DMS 273 small cell lung = tested on: DMS 273 small cell lung
HCC-2998 colon = tested on: HCC-2998 colon
CAKI-1 renal = tested on: CAKI-1 renal
HCT-15 colon = tested on: HCT-15 colon
SK-MEL-2 melanoma = tested on: SK-MEL-2 melanoma
M19-MEL melanoma = tested on: M19-MEL melanoma
SNB-78 CNS = tested on: SNB-78 CNS
MCF7 breast = tested on: MCF7 breast
SR leukemia = tested on: SR leukemia
PC-3 prostate = tested on: PC-3 prostate
DMS 114 small cell lung = tested on: DMS 114 small cell lung

Row | SMILES | TGI (MALME-3M melanoma) | TGI (DMS 273 small cell lung) [µM] | TGI (HCC-2998 colon) | TGI (CAKI-1 renal) | TGI (HCT-15 colon) | TGI (SK-MEL-2 melanoma) | TGI (M19-MEL melanoma) [µM] | TGI (SNB-78 CNS) [µM] | GI50 (MCF7 breast) | TGI (MCF7 breast) | GI50 (SR leukemia) | TGI (SR leukemia) | GI50 (MALME-3M melanoma) | GI50 (HCC-2998 colon) | GI50 (CAKI-1 renal) | GI50 (HCT-15 colon) | GI50 (PC-3 prostate) | TGI (PC-3 prostate) | GI50 (SK-MEL-2 melanoma) | TGI (DMS 114 small cell lung) [µM]
1 | Fc1cccc(F)c1C1SCc2nc3ccccc3n21 (stereo unspecified) | > 100 µM | > 100 | > 100 µM | > 100 µM | > 100 µM | > 100 µM | > 100 | > 100 |  |  |  |  |  |  |  |  |  |  |  | 
2 | CS(=O)(=O)c1ccc(C(F)(F)F)cc1NC(=O)Nc1cnc(Oc2ccc(-c3cc(Cl)cnc3N)cc2)nc1 | 5.29 µM |  | 8.72 µM | 22.4 µM | 13.4 µM | 5.03 µM |  |  | 2.18 µM | 7.35 µM | 1.98 µM | 4.66 µM | 2.05 µM | 2.79 µM | 2.98 µM | 2.74 µM | 2.05 µM | 6.23 µM | 2.34 µM | 
3 | N#Cc1cccc(Nc2nccc(-c3cnn4ncccc34)n2)c1 | 0.0209 µM |  | 0.0241 µM | 1.17 µM | > 25 µM | 0.0105 µM |  |  | 0.00856 µM | > 25 µM | 0.0025 µM |  | 0.0076 µM | 0.00695 µM | 0.00729 µM | 0.0071 µM | 0.00745 µM | > 25 µM | 0.00458 µM | 
4 | NC1=C(c2nc(-c3cc4ccccc4oc3=O)cs2)C(c2ccco2)c2c(c3ccccc3oc2=O)O1 (stereo unspecified) | > 150 µg/mL |  | > 150 µg/mL | > 150 µg/mL | > 150 µg/mL | 112 µg/mL |  |  | > 150 µg/mL | > 150 µg/mL | 51.9 µg/mL | > 150 µg/mL | 120 µg/mL | > 150 µg/mL | > 150 µg/mL | > 150 µg/mL | > 150 µg/mL | > 150 µg/mL | 43.6 µg/mL | 
5 | Cc1cc(NC(=O)CCc2ccc(N3C(N)=NC(N)=NC3(C)C)cc2)ccc1S(=O)(=O)F | > 100 µM |  | > 100 µM | > 100 µM | > 100 µM | > 100 µM |  |  | 0.115 µM | > 25.1 µM | > 100 µM | > 100 µM | > 89.4 µM | 0.709 µM |  | 4.51 µM | 0.368 µM | > 100 µM | > 55.9 µM | 
6 | O=[N+]([O-])c1ccc2nc(N/N=C/c3ccc(O)cc3)sc2c1 | > 100 µM |  | > 100 µM | 81.5 µM | > 100 µM | 25.7 µM |  |  | 3.17 µM | 70.5 µM | 3.07 µM | 20.7 µM | 19.7 µM | 7.08 µM | 4.07 µM | 3.87 µM | 4.51 µM | 34.2 µM | 4 µM | 
7 | COc1ccc(/C=N/NC(=O)O)cc1 | > 100 µM |  | > 100 µM | > 100 µM | > 100 µM | > 100 µM |  |  |  | > 100 µM |  | > 100 µM |  |  |  |  |  | > 100 µM |  | 
8 | COc1cc2cc(C(=O)O)[nH]c2cc1OCc1ccccc1 | 12.2 µM |  | > 100 µM | > 100 µM | > 100 µM | > 100 µM |  |  | 93.2 µM | > 100 µM | > 100 µM | > 100 µM | 2.97 µM | > 100 µM | > 100 µM | 84 µM | > 100 µM | > 100 µM | 44.9 µM | 
9 | O=C1OC(c2ccc([N+](=O)[O-])cc2)=N/C1=C\c1ccc(O)cc1 | > 100 µM |  | > 100 µM | > 100 µM | > 100 µM | > 100 µM |  |  |  | > 100 µM |  | > 100 µM |  |  |  |  |  | > 100 µM |  | 
10 | C=CCSc1n[nH]c(-c2cccs2)n1 | > 100 µM |  | > 100 µM | > 100 µM | > 100 µM | > 100 µM |  |  | > 100 µM | > 100 µM | > 100 µM | > 100 µM | > 100 µM | > 100 µM | > 100 µM | > 100 µM | > 100 µM | > 100 µM | > 100 µM | 
11 | CCN(C)S(=O)(=O)Nc1cccc(Nc2ncnc3cc(NC(=O)CCl)ccc23)c1Cl | 5.62 µM |  | 9.57 µM | 8.5 µM | 5.52 µM | 14.3 µM |  |  | 1.11 µM | 8.33 µM | 0.824 µM | 7.76 µM | 1.42 µM | 3.89 µM | 3.15 µM | 1.04 µM | 2.97 µM | 8.32 µM | 4.36 µM | 
12 | N#Cc1ccc(-n2cnc(NC(=O)[C@H]3CCN(C#N)C3)c2)cc1 | 6.58 µM |  | 18.6 µM | > 100 µM | > 100 µM | 4.09 µM |  |  | < 0.0378 µM | > 100 µM | 0.375 µM | > 100 µM | 0.312 µM | 2.28 µM | 2.48 µM | 2.2 µM | 2.39 µM | 20.2 µM | 0.935 µM | 
13 | COc1cc(/C=C2\C(=O)N(c3c(Cl)cccc3Cl)c3ccccc32)cc(OC)c1O | 16 µM |  | 17.7 µM | 19.1 µM | 11.2 µM | 15.4 µM |  |  | 0.524 µM | 9.26 µM | 0.0847 µM |  | 0.537 µM | 3.3 µM | 0.455 µM | 0.0682 µM | 1.44 µM | 27.1 µM | 1.23 µM | 
14 | COc1ccc(OC)c(CCc2cc(OC)c(OC)cc2C)c1 | > 100 µM |  | > 100 µM | > 100 µM |  | > 100 µM | > 100 | 92.7 |  |  |  |  |  |  |  |  |  |  |  | 72.9
15 | CCOC(=O)C(=Cc1ccc(Br)cc1)C(=O)OCC | 5.59 µM |  | 3.48 µM | 5.59 µM | 3.5 µM | 4.39 µM |  |  | 1.66 µM | 6.67 µM | 2.41 µM | > 23.1 µM | 2.32 µM | 1.91 µM | 1.76 µM | 1.44 µM | 1.86 µM | 5.96 µM | 2.02 µM | 
16 | CCOC(=O)c1c(C)c2c(n1C)CSc1cc(S(=O)(=O)c3ccccc3)c(=O)[nH]c1-2 | > 100 µM |  | > 100 µM | > 100 µM | > 100 µM | > 100 µM |  |  | 19.3 µM | > 100 µM | 29.3 µM | > 100 µM | 35.1 µM | 35.2 µM | 21.1 µM | 25.8 µM | 14 µM | > 100 µM | 36.2 µM | 
17 | NC(=O)c1c(OCc2c(F)cc(Br)cc2F)nsc1NC(=O)NCCCCN1CCCC1 | 3.41 µM |  | > 10 µM | > 10 µM | > 10 µM | > 10 µM |  |  | 1.99 µM | > 10 µM | 1.74 µM | 4.37 µM | 1.73 µM | 5.26 µM | 2.49 µM | 2.85 µM | 3.14 µM | > 10 µM | > 10 µM | 
18 | O=C1Nc2ccccc2SC1C1SC(=S)N(Cc2ccccc2)C1=O (stereo unspecified) | > 61.5 µM |  | 17.1 µM | 17.6 µM | 16 µM | 37.4 µM |  |  | 1.21 µM | 14.4 µM | 4.03 µM | > 78.2 µM | 15.9 µM | 5.33 µM | 4.53 µM | 3.37 µM | 5.74 µM | > 43 µM | 18.6 µM | 
19 | CC/C(=C(\c1ccc(O)cc1)c1ccc(OCCNC)cc1)c1ccccc1 | 3.49 µM and 3.29 µM and 3.5 µM |  | 3.28 µM and 3.23 µM and 3.62 µM | 4.28 µM and 3.52 µM and 6.29 µM | 3.92 µM and 3.2 µM and 3.71 µM | 4.02 µM and 3.65 µM and 3.85 µM |  |  | 0.788 µM and 0.427 µM | 2.84 µM and 2.83 µM and 2.81 µM | 2.42 µM and 1.63 µM and 2.22 µM | 5.85 µM and 4.11 µM and 5.54 µM | 1.76 µM and 1.66 µM and 1.82 µM | 1.8 µM and 1.78 µM and 1.88 µM | 1.82 µM and 1.68 µM and 2.02 µM | 1.8 µM and 1.56 µM | 1.84 µM and 1.77 µM and 2.25 µM | 5.92 µM and 4.85 µM and 5.53 µM | 2.04 µM and 1.85 µM and 2.1 µM | 
20 | COc1cc2c(cc1OC)-c1c(cc(OC)c(OC)c1OC)C2=O | > 100 µM |  | > 100 µM |  | > 100 µM |  | > 100 |  |  |  |  | > 100 µM |  |  |  |  |  |  |  | > 100
21 | NC(N)=NC(N)=NCCc1ccccc1 | > 100 µM |  | > 100 µM | > 100 µM | > 100 µM | > 100 µM |  |  | > 100 µM | > 100 µM | 8.44 µM | > 100 µM | 72 µM | > 100 µM | 58.5 µM and > 100 µM | > 100 µM | 45.3 µM and 60.3 µM | > 100 µM | > 100 µM | 
22 | O=C1C(Nc2ccccn2)=C(I)C(=O)c2ncccc21 | 2.54 µM |  | 2.98 µM | 2.12 µM | 1.39 µM | 3.51 µM |  |  | 0.396 µM | 2.07 µM | 0.274 µM | 10 µM | 1.27 µM | 1.53 µM | 0.826 µM | 0.226 µM | 1.75 µM | 5.12 µM | 1.76 µM | 
23 | O=C1/C(=C\c2ccccc2)c2ccccc2N1Cc1ccccc1 | 12.8 µM |  | 16.4 µM | 13.2 µM | 14.5 µM | 17.1 µM |  |  |  | 12.3 µM |  | 9.66 µM |  |  |  |  |  | 15.9 µM |  | 
24 | c1ccc(-c2cc(-c3cc(-c4ccccn4)[nH]n3)n[nH]2)nc1 | > 100 µM |  | 83.6 µM | > 100 µM | > 100 µM | > 100 µM |  |  |  | > 100 µM |  | 80.6 µM |  |  |  |  |  | > 100 µM |  | 
25 | O=C(Nc1cc(C(F)(F)F)ccc1Cl)C(=O)C(C(=O)c1ccc2ccccc2c1)C1OC(=O)c2ccccc21 (stereo unspecified) | 27.4 µM |  | 22.7 µM | > 52.5 µM | 30.1 µM | 28.7 µM | 46.4 |  |  |  |  | 14.9 µM |  |  |  |  |  |  |  | 52.9
26 | O=C(N/N=C/c1cc2ccccc2c2ccccc12)c1cc(O)c(O)c(O)c1 | 7.19 µM |  | 22.4 µM | 19.1 µM | 25.4 µM | 15.9 µM |  |  | 3.68 µM | 19.7 µM | 3.72 µM | > 100 µM | 2.27 µM | 8.54 µM | 3.72 µM | 3.22 µM | 3.28 µM | 15.6 µM | 4.25 µM | 

Reference: PubChem BioAssay (NCI)
